Entries after “also recorded” stand apart in the source; their conditions may differ. Read-outs that look alike come from different tables or passages of the source.
Experiments:
tyrosinase [1] = conditions: cited from earlier work; for IC50: tyrosinase
B16F10 cell line [2] = test system: B16F10 cell line; set-up: method as in PMID 33640246; conditions: cited from earlier work
B16F10 cell line [3] = test system: B16F10 cell line; set-up: method as in PMID 33640246; conditions: cited from earlier work; remark: listed apart in the source
mushroom tyrosinase = molecular target: T1, mushroom tyrosinase (Agaricus bisporus, UniProt C7FF04); experiment: Screening of mushroom tyrosinase inhibitory activity (oxidation of L-dopa); format: biochemical; conditions: L-dopa substrate, mean ± S.E; for inhibition at 50 µM: 50 µM compound
T1 construct: purchased Sigma-Aldrich, St Louis, MO, USA
T1 sequence (C7FF04 1-392 limits assumed): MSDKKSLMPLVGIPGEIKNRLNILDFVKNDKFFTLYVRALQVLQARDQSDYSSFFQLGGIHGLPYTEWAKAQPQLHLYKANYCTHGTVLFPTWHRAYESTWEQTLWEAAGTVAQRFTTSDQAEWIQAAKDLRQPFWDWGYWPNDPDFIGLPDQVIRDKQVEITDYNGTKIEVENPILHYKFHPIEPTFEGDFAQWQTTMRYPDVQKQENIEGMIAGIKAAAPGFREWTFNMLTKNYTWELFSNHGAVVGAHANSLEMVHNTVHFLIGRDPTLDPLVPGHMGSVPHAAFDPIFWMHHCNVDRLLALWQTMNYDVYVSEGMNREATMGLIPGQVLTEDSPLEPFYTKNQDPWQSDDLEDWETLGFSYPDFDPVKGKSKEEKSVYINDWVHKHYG
Procedure: All newly synthesized compounds (9a–q) were examined for their inhibitory potentials against the tyrosinase enzyme and the results were presented in Table 1 and the structure–activity relationships (SARs) were constructed. […].
Tyrosinase inhibitory activity was determined based on the previously described procedure with a slight modification. In brief, the test reaction mixture comprised 10 µL of each derivative, and 10 µL of mushroom tyrosinase (500 units; Sigma-Aldrich, St Louis, MO, USA) in 160 potassium phosphate buffer (pH = 6.8). The reaction mixture was incubated at 37 °C for 20 min and then 20 µL of L-Dopa (0.5 mmol/L) was added to each well, and the absorption was measured at 475 nm. The absorbance of the same mixture without tyrosinase was used as the control. Kojic acid was used as a positive control. The optical density of the inhibition in the control was considered to represent 100%. The data are expressed as mean percentages and the results were repeated in triplicate.

[4] = DPPH radical scavenging assay (antioxidant activity); conditions: for % Inhibition at 100 µM: 100 µM compound, mean ± S.E of three independent experiments; for antioxidant capacity: result in words; for IC50: NA means not active, read-out: IC50 (µM) ± RSD
Procedure: In vitro antioxidant activities of the synthesized compounds were determined quantitatively using DPPH radical scavenging assay. DPPH is a stable free radical at room temperature and accepts an electron or hydrogen radical from an antioxidant to become a stable diamagnetic molecule. […] Similar to previous studies, halogens especially fluorine, increases antioxidant activity.
The DPPH antioxidant potencies of all derivatives were performed according to previously published articles.

tyrosinase [5] = molecular target: tyrosinase (Agaricus bisporus, UniProt C7FF04); experiment: Enzyme kinetic studies of tyrosinase inhibition (Lineweaver-Burk and secondary plots); format: biochemical, mushroom
tyrosinase (Agaricus bisporus, UniProt C7FF04), sequence (C7FF04 2-392): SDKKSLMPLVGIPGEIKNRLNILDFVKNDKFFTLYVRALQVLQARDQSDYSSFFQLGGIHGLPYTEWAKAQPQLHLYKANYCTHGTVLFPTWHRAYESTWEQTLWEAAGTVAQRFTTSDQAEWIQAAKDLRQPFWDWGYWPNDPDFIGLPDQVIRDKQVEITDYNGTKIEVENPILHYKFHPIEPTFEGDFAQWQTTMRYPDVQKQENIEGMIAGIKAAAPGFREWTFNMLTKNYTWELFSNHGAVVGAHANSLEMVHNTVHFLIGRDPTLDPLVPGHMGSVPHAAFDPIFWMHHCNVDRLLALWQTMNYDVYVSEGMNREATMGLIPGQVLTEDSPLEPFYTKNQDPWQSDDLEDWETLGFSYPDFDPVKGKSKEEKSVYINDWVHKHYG
Procedure: Fig. 2 Kinetics of tyrosinase inhibition by 9q. a The Lineweaver–Burk plot in the absence and presence of different concentrations of 9q; b The secondary plot of slopes of the lines vs various concentrations of 9q; c The secondary plot of 1/Vmax vs various concentrations of 9q
A Lineweaver–Burk plot was generated to identify the type of inhibition and the Michaelis–Menten constant (Km) value was determined from the plot between the reciprocal of the substrate concentration (1/[S]) and reciprocal of enzyme rate (1/V) over various inhibitor concentrations.

Row | Structure (SMILES) | melting point [°C] | inhibition at 50 µM (mushroom tyrosinase) [%] | % Inhibition at 100 µM [4] [%] | also measured
1 | O=c1cc(CSc2nc3ccccc3c(=O)n2Cc2ccccn2)occ1O [C] | – | – | – | IC50 (tyrosinase [1]): 0.46 ± 0.9 µM; melanin content (B16F10 cell line [2]): reduced the melanin content; toxicity (B16F10 cell line [3]): limited toxicity
2 | CC(C)n1c(SCC(=O)Nc2ccccc2Cl)nc2ccccc2c1=O [Compound 9b, N-(2-chlorophenyl)-2-((3-isopropyl-4-oxo-3,4-dihydroquinazolin-2-yl)thio)acetamide] | 207 to 209 | 38 ± 4.68 | 26.47 ± 2.48 | –
3 | CC(C)n1c(SCC(=O)Nc2cccc(Cl)c2)nc2ccccc2c1=O [Compound 9c, N-(3-chlorophenyl)-2-((3-isopropyl-4-oxo-3,4-dihydroquinazolin-2-yl)thio)acetamide] | 203 to 205 | 27.8 ± 1.19 | 18.71 ± 5.39 | –
4 | CC(C)n1c(SCC(=O)Nc2ccc(Br)cc2)nc2ccccc2c1=O [Compound 9e, N-(4-bromophenyl)-2-((3-isopropyl-4-oxo-3,4-dihydroquinazolin-2-yl)thio)acetamide] | 203 to 205 | 24.8 ± 3.12 | 41.44 ± 3.85 | –
5 | Cc1ccccc1NC(=O)CSc1nc2ccccc2c(=O)n1C(C)C [Compound 9g, 2-((3-isopropyl-4-oxo-3,4-dihydroquinazolin-2-yl)thio)-N-(o-tolyl)acetamide] | 196 to 198 | 34.6 ± 4.67 | – | –
6 | Cc1cccc(NC(=O)CSc2nc3ccccc3c(=O)n2C(C)C)c1C [Compound 9l, N-(2,3-dimethylphenyl)-2-((3-isopropyl-4-oxo-3,4-dihydroquinazolin-2-yl)thio)acetamide] | 217 to 219 | 18.2 ± 5.52 | 5.08 ± 2.14 | –
7 | Cc1ccc(NC(=O)CSc2nc3ccccc3c(=O)n2C(C)C)c(C)c1 [Compound 9m, N-(2,4-dimethylphenyl)-2-((3-isopropyl-4-oxo-3,4-dihydroquinazolin-2-yl)thio)acetamide] | 222 to 225 | 27.3 ± 3.43 | 21.12 ± 2.99 | –
8 | Cc1cccc(C)c1NC(=O)CSc1nc2ccccc2c(=O)n1C(C)C [Compound 9n, N-(2,6-dimethylphenyl)-2-((3-isopropyl-4-oxo-3,4-dihydroquinazolin-2-yl)thio)acetamide] | 215 to 217 | 16.3 ± 6.57 | 44.38 ± 5.03 | –
9 | CC(C)n1c(SCC(=O)Nc2ccc3ccccc3c2)nc2ccccc2c1=O [Compound 9o, 2-((3-isopropyl-4-oxo-3,4-dihydroquinazolin-2-yl)thio)-N-(naphthalen-2-yl)acetamide] | 217 to 219 | 35.2 ± 3.88 | 68.44 ± 4.84 | IC50 [4]: 38.8 µM
10 | CC(C)n1c(SCC(=O)NCc2ccccc2)nc2ccccc2c1=O [Compound 9p, N-benzyl-2-((3-isopropyl-4-oxo-3,4-dihydroquinazolin-2-yl)thio)acetamide] | 194 to 196 | 29.1 ± 5.24 | 4.47 ± 2.35 | antioxidant capacity [4]: no antioxidant capacity
11 | O=c1[nH]c(-c2ccc(F)cc2)nc2ccccc12 [Compound A, 2–4-fluorophenyl-quinazolin-4(3H)-one] | – | – | – | type of inhibition (tyrosinase [1]; kinetic studies): reversible and mixed-type inhibitor; IC50 (tyrosinase [1]; diphenolase activity): 120 ± 2 µM
12 | CC(C)=CCC/C(C)=C/c1nc2ccccc2c(=O)[nH]1 [D] | – | – | – | type of inhibition (tyrosinase [1]): mix type inhibition pattern; IC50 (tyrosinase [1]): 103 ± 2 µM
13 | CC(C)n1c(=S)[nH]c2ccccc2c1=O [E] | – | – | – | IC50 (tyrosinase [1]): 15.5 ± 1.19 µM
14 | CC(C)N1C(=O)c2ccccc2NC1SCc1ccccc1 (stereo not drawn) [F] | – | – | – | IC50 (tyrosinase [1]): 71 ± 3.37 µM
15 | O=c1c(O)c(-c2ccc(O)c(O)c2)oc2cc(O)cc(O)c12 [Quercetin, reference compound] | – | – | – | IC50 [4]: 18.6 µM

Further lines, with some results ahead:

Row | melting point [°C] | inhibition at 50 µM (mushroom tyrosinase) [%] | Structure (SMILES) | % Inhibition at 100 µM [4] [%] | also measured
16 | 190 to 192 | 21.6 ± 3.79 | CC(C)n1c(SCC(=O)Nc2ccccc2)nc2ccccc2c1=O [Compound 9a, 2-((3-Isopropyl-4-oxo-3,4-dihydroquinazolin-2-yl)thio)-N-phenylacetamide] | 2.941 ± 1.76 | antioxidant capacity [4]: no antioxidant capacity
17 | 211 to 213 | 26.9 ± 4.67 | CC(C)n1c(SCC(=O)Nc2ccc(Cl)cc2)nc2ccccc2c1=O [Compound 9d, N-(4-chlorophenyl)-2-((3-isopropyl-4-oxo-3,4-dihydroquinazolin-2-yl)thio)acetamide] | 42.78 ± 4.86 | –
18 | 216 to 218 | 32.7 ± 5.67 | CC(C)n1c(SCC(=O)Nc2ccc([N+](=O)[O-])cc2)nc2ccccc2c1=O [Compound 9f, 2-((3-isopropyl-4-oxo-3,4-dihydroquinazolin-2-yl)thio)-N-(4-nitrophenyl)acetamide] | 4.87 ± 1.65 | –
19 | 199 to 201 | 26.7 ± 6.42 | Cc1ccc(NC(=O)CSc2nc3ccccc3c(=O)n2C(C)C)cc1 [Compound 9h, 2-((3-isopropyl-4-oxo-3,4-dihydroquinazolin-2-yl)thio)-N-(p-tolyl)acetamide] | 29.41 ± 1.76 | –
20 | 205 to 207 | 25.4 ± 3.13 | COc1ccc(NC(=O)CSc2nc3ccccc3c(=O)n2C(C)C)cc1 [Compound 9i, 2-((3-isopropyl-4-oxo-3,4-dihydroquinazolin-2-yl)thio)-N-(4-methoxyphenyl)acetamide] | 20.05 ± 3.47 | –
21 | 193 to 195 | 35.5 ± 4.91 | CC(C)n1c(SCC(=O)Nc2ccc(O)cc2)nc2ccccc2c1=O [Compound 9j, N-(4-hydroxyphenyl)-2-((3-isopropyl-4-oxo-3,4-dihydroquinazolin-2-yl)thio)acetamide] | 40.83 ± 4.53 | –
22 | 195 to 197 | 20.4 ± 4.19 | CCc1ccc(NC(=O)CSc2nc3ccccc3c(=O)n2C(C)C)cc1 [Compound 9k, N-(4-ethylphenyl)-2-((3-isopropyl-4-oxo-3,4-dihydroquinazolin-2-yl)thio)acetamide] | 10.16 ± 4.27 | –
23 | – | 54.5 ± 3.94 | CC(C)n1c(SCC(=O)NCc2ccc(F)cc2)nc2ccccc2c1=O [Compound 9q, N-(4-fluorobenzyl)-2-((3-isopropyl-4-oxo-3,4-dihydroquinazolin-2-yl)thio)acetamide] | 60.33 ± 5.53 | type of inhibition (tyrosinase [5]; Lineweaver-Burk plot, L-Dopa substrate, 9q at 10-50 µM): mix-type inhibition; also recorded: mix-type inhibitor; also recorded: mixed mode of inhibition; inhibition constant with the enzyme-substrate complex (KIS) (tyrosinase [5]; secondary plot of 1/Vmax vs inhibitor concentration): 87.32 µM; IC50 (mushroom tyrosinase; NA means not active): 34.7 ± 3.68 µM; IC50 [4]: 40.7 µM
